# Results from patent publication US6958311B2, “Flowering regulators” (Riken, priority 2000, dated 2005).
# Tested on: American Blue (Evolvulus pilosus)
# Assay: Flowering of American Blue pots in greenhouse after spraying with brassinazole solution
# Type: in vivo
# Conditions: sprayed 1000 g/ha on days 0, 7, 14 and 30
# Text: In the figure, □ indicates the result of a group treated with the flowering regulator of the present invention (brassinazole), and ∇ indicates the result of an untreated group. The vertical axis indicates a rate of flowering, and the horizontal axis indicates the number of days after the treatment. The arrows indicate the days when the flowering regulator is sprayed. Forty four pots of American Blue (Evolvulus pilosus) of about one month after cutting, which were purchased as-commercial products, were grown in a greenhouse at 22° C. under a natural light condition during the day and an artificial light condition during the night. These pots were divided into two groups, and 22 plants were sprayed with brassinazole [4-(4-chlorophenyl)-2-phenyl-3-(1,2,4-triazoyl)butan-2-ol] solution in an amount of 1000 g/ha on days 0, 7, 14 and 30. The other group (22 plants) was grown under the same conditions except for the treatment with the agent. As the brassinazole solution, 0.5 mg/ml aqueous solution containing 0.1% dimethyl sulfoxide and 0.1% Tween 20 was prepared, and diluted to a 1/10 concentration with water upon use and sprayed by using a spray in the predetermined amount.
compound,measurement,setting,value
"CC(O)(c1ccccc1)C(Cc1ccc(Cl)cc1)n1cncn1 (centres unmarked) [brassinazole, 4-(4-chlorophenyl)-2-phenyl-3-(1,2,4-triazoyl)butan-2-ol]",flowering accelerating effect,compared with the untreated plot,clearly demonstrated
same,flowering (rate of flowering),"greenhouse 22° C., 22 plants, untreated plot: flowering on only one plant on day 35",flowering occurred after flower-bud formation
